In assay [1] the test system is human hepatocellular carcinoma cells HepG2. Briefly: MTT anti-proliferative assay, HepG2. It is filed as cell-based. The settings on record: for Experimental pIC50: HepG2. As to the method:
(§1) Human breast carcinoma cells MDA-MB-231, human hepatocellular carcinoma cells HepG2, and human lung carcinoma cells A549, were purchased from ATCC, or were gifted by Professor Burton B. Yang from University of Toronto, Canada. The anti-proliferative effect of total extract (GL), fractions (GL1–GL4), and compounds 1–14 on tumor cell lines was evaluated by MTT assay (Franchi et al., [2012]). Total extract (GL) and fractions (GL1–GL4) were evaluated for their anti-proliferative effect on three types of carcinoma cells (MDA-MB-231, HepG2, and A549). Compounds 1–14 were chosen to evaluate for their anti-proliferative effect against MDA-MB-231 and HepG2 cells. Hundred microliters of cells suspension (5 × 10^4 cells/mL) was seeded into wells of a 96-well plate. After being incubated for 4 h, different concentrations of fractions/compounds were added onto the cells and incubated. After 48 h, 150 μL of 3-[4,5-dimethylthiazol-2-yl]-2,5-diphenyl tetrazolium bromide (MTT) solution (Sigma) was added to each well, and cells were kept being incubated for 4 h. After removing the MTT/medium, DMSO (100 μL) of was added to each well and was agitated at 60 rpm for 5 min. The optical density of the assay 96-well plate was read (λ = 540 nm) on a microplate reader.
(§2) IC50-values were calculated and analyzed using SPSS with three replications, each carried out in triplicate. Data were expressed as mean ± SD and analyzed by one-way ANOVA followed by two-tailed Student's t-test. A difference was considered significant at the P < 0.05 or P < 0.01 level.
Background: Formazan colour is commonly taken as a measure of viable cells.

Assay [2] relates to Human breast carcinoma cells MDA-MB-231. The assay is described as follows: MTT anti-proliferative assay, MDA-MB-231. The conditions noted are these: mean ± SD. The class given is cell-based. As to the method: as §1, §2
Assay [3] has as its system HUVECs. Briefly: Anti-angiogenesis activity, MTT assay on HUVECs. The class given is cell-based, human. The settings on record: for EC50: MTT, 48 h, mean ± SD; for selective inhibition, tumor cells versus HUVECs: comparison of MDA-MB-231/HepG2 and HUVEC values. As to the method:
HUVECs (KeyGEN BioTECH Co., Ltd, Jiangsu, China) were cultured in ECM (endothelial cell medium) with 5% (v/v) FBS, 1% (v/v) ECGS, and 1% penicillin-streptomycin (w/v) at 37°C in a cell incubator. The MTT assay was employed to assess the anti-angiogenic effect of the isolated compounds against HUVECs as described previously with mild modification (Liang et al., [2015]; Nguyen et al., [2015]). Briefly, HUVECs were seeded into a 96-well plate and incubated. Different concentrations of compounds 1–14 were added onto the cells after 4 h, and continued to be co-incubated for 48 h. Next, the cells were co-incubated with MTT (Sigma, St. Louis, MO, USA) to a final concentration of 0.05% for another 4 h. Then, replacing the MTT solution with […] DMSO, and kept the plates being shaken for 3 min. The optical density of each well was measured on a microplate reader at λ = 570 nm.
as §2

Assay [4] relates to mouse embryonic fibroblasts (NIH/3T3). Briefly: Cytotoxicity on normal cells NIH/3T3. The class given is cell-based. As to the method: Anti-proliferative activity evaluation against two types of human cancer cells (MDA-MB-231 and HepG2), HUVECs and mouse embryonic fibroblasts (NIH/3T3, used as normal cells) were then carried out.
The mark [5] stands for this setting: Homo sapiens, HepG2, 48 h, MTT, 48 h, mean ± SD, read-out: IC50 HepG2.
Setting [6] is: Homo sapiens, HepG2, HepG2, converted from observed IC50s (μM), read-out: Experimental pIC50 (converted).
The mark [7] stands for this setting: Mus musculus, NIH3T3, mean ± SD.
[8] abbreviates: MTT, 48 h, mean ± SD, read-out: IC50 HepG2.
The mark [9] stands for this setting: converted from observed IC50s (μM).

Like-named read-outs stand apart in the source and are kept apart here.

What is called EC50 is the concentration giving half of the maximal effect. For `CC(C)[C@@H](C)/C=C/[C@@H](C)[C@H]1CC[C@H]2C3=C[C@H](O)[C@@]4(O)C[C@@H](O)CC[C@]4(C)[C@@]3(O)CC[C@]12C` [Compound 6, (3β, 5α, 6α, 9α, 22E)-ergosta-7, 22-diene-3,5,6,9-tetrol], the IC50 is 185 ± 9.5 µM in assay [1] (setting [5]); 185 µM in assay [1] (setting [6]); 224 ± 10 µM in assay [2] (Homo sapiens, MDA-MB-231, 48 h). The concentration for a half-maximal effect (EC50) in assay [3] (Homo sapiens, HUVEC) was 384 ± 10.9 µM; in assay [4] (setting [7]), over 500 µM.
`CC(C)[C@@H](C)/C=C/[C@@H](C)[C@H]1CC[C@@H]2[C@]1(C)CC=C1[C@]23C=C[C@]2(C[C@@H](O)CC[C@]12C)OO3` [Compound 13, (3β, 5α, 8α, 22E)-5,8-epidioxy-ergosta-6, 9 (11), 22-trien-3-ol]: the IC50 was 44.5 ± 1.3 µM in assay [1] (setting [5]); 44.5 µM in assay [1] (setting [6]); 32.1 ± 3 µM in assay [2] (Homo sapiens, MDA-MB-231, 48 h). In addition, the 50% effective concentration (EC50) stood at 51.6 ± 2.8 µM in assay [3] (Homo sapiens, HUVEC) and 293 ± 17.2 µM in assay [4] (setting [7]).
The corresponding values for `CC(C)[C@@H](C)/C=C/[C@@H](C)[C@H]1CC[C@H]2C3=C[C@H](O)[C@@]4(O)C[C@@H](O)CC[C@]4(C)[C@H]3CC[C@]12C` [Compound 5, (3β, 5α, 6α, 22E)-ergosta-7, 22-diene-3,5,6-triol] are 197 ± 20.1 µM, 197 µM, 114 ± 9.9 µM, 206 ± 12.2 µM and over 500 µM.
Turning to `CO[C@@H]1C=C2[C@@H]3CC[C@H]([C@H](C)/C=C/[C@H](C)C(C)C)[C@@]3(C)CC[C@@H]2[C@@]2(C)CC[C@H](O)[C@H]3O[C@@]312` [Compound 1, (22E)-4α, 5α-epoxy-6β-methoxyergosta-7, 22-diene-3β-ol], the IC50 is 138 ± 8.3 µM in assay [1] (setting [5]); 138 µM in assay [1] (setting [6]); 176 ± 5.1 µM in assay [2] (Homo sapiens, MDA-MB-231, 48 h). The half-maximal effective concentration (EC50) was determined as 144 ± 6.1 µM in assay [3] (Homo sapiens, HUVEC) and 422 ± 9.3 µM in assay [4] (setting [7]).
The corresponding values for `CC(C)[C@@H](C)/C=C/[C@@H](C)[C@H]1CC[C@@H]2[C@]1(C)CC[C@H]1[C@]23C=C[C@]2(C[C@@H](O)CC[C@]12C)OO3` [Compound 11, (3β, 5α, 8α, 22E)-5,8-epidioxy-ergosta-6, 22-dien-3-ol] are 34.8 ± 2.6 µM, 34.8 µM, 44.6 ± 1.9 µM, 29.1 ± 3.2 µM and 197 ± 11.3 µM.
For the compound `CC(C)[C@@H](C)/C=C/[C@@H](C)[C@H]1CC[C@H]2C3=C[C@@H](O)[C@@]4(O)C[C@@H](O)CC[C@]4(C)C3=CC[C@]12C` [Compound 2, (3β, 5α, 6β, 22E)-ergosta-7, 9 (11), 22-triene-3,5,6-triol], the IC50 in assay [1] (setting [5]) was under 100 µM; in assay [1] (setting [6]), 62.5 µM; in assay [1] (setting [8]), 62.5 ± 1.3 µM; in assay [2] (48 h), 56.3 ± 1.5 µM; in assay [2] (Homo sapiens, MDA-MB-231, 48 h), under 100 µM. For the same compound, the 50% effective concentration (EC50) in assay [3] (Homo sapiens, HUVEC) came to 142 ± 3.6 µM; in assay [4] (setting [7]) it was 303 ± 11.9 µM. Also, the “selective inhibition, tumor cells versus HUVECs” value in assay [3] is reported as “significant selective inhibition against cancer cells”.
On to `CC(C)[C@@H](C)/C=C/[C@@H](C)[C@H]1CC[C@H]2C3=C(CC[C@]12C)[C@@]1(C)CC[C@H](O)C[C@@]12O[C@H]2[C@H]3O` [Compound 9, (3β, 5α, 6α, 7α, 22E)-5,6-epoxy-ergosta-8, 22-diene-3,7-diol], for which the “increase of activity compared with compound 2” value in assay [1] (HepG2 IC50) is recorded as “approximately 3 folds”. The IC50 is 22.1 ± 0.9 µM in assay [1] (setting [5]); 22.1 µM in assay [1] (setting [6]); 20.3 ± 2.2 µM in assay [2] (Homo sapiens, MDA-MB-231, 48 h). The EC50 stood at 27.9 ± 1.7 µM in assay [3] (Homo sapiens, HUVEC) and 183 ± 10.3 µM in assay [4] (setting [7]).
Turning to “(3β, 5α, 6β, 14α, 22E)-ergosta-7, 9 (11), 22-triene-3, 5, 6, 14-tetrol [Compound 7]”, in assay [1] (setting [9]), the “Experimental pIC50” value is given as 3.806. Moreover, the IC50 in assay [1] (setting [8]) came out at 156 ± 8.9 µM; in assay [2] (48 h) it was 169 ± 11.1 µM. The figures for the EC50 in assay [3] (read-out: EC50 HUVEC) and in assay [4] (mean ± SD) were 188 ± 15.3 µM and over 500 µM, respectively.
As to `CC(C)[C@@H](C)/C=C/[C@@H](C)[C@H]1CCC2=C3[C@H](O)[C@@H]4O[C@@]45C[C@@H](O)CC[C@]5(C)[C@H]3CC[C@@]21C` [Compound 10, (3β, 5α, 6α, 7α, 22E)-5,6-epoxy-ergosta-8 (14), 22-diene-3,7-diol], the IC50 is 50.6 ± 5.3 µM in assay [1] (setting [5]); 50.6 µM in assay [1] (setting [6]); 46.7 ± 5.4 µM in assay [2] (Homo sapiens, MDA-MB-231, 48 h). Further, the half-maximal effective concentration (EC50) in assay [3] (Homo sapiens, HUVEC) came to 48.7 ± 2.9 µM; in assay [4] (setting [7]) it was 194 ± 9.6 µM.
For `CC(C)[C@@H](C)/C=C/[C@@H](C)[C@H]1CC[C@H]2C3=C[C@@H](O)[C@@]4(O)C[C@@H](O)CC[C@]4(C)[C@H]3CC[C@]12C` [Compound 4, (3β, 5α, 6β, 22E)-ergosta-7, 22-diene-3,5,6-triol] the same measures were 175 ± 15.9 µM, 175 µM, 149 ± 8.7 µM, 345 ± 13.7 µM and over 500 µM.
As for “(3β, 5α, 6β, 9α, 22E)-ergosta-7, 22-diene-3, 5, 6, 9-tetrol [Compound 3]”, in assay [1] (setting [9]), the “Experimental pIC50” value was found to be 3.887. The IC50 in assay [1] (setting [8]) was found to be 130 ± 3.4 µM; in assay [2] (48 h), 148 ± 5.8 µM. The results for the half-maximal effective concentration (EC50) in assay [3] (read-out: EC50 HUVEC) and in assay [4] (mean ± SD) were 84 ± 6.7 µM and 365 ± 15.7 µM, respectively. The “selective inhibition, tumor cells versus HUVECs” value in assay [3] was “selective inhibition against HUVECs”.
As for `O=c1c(O)c(-c2ccc(O)cc2)oc2cc(O)cc(O)c12` [kaempferol, reference compound], the IC50 in assay [1] (setting [5]) was 45.4 ± 3.4 µM; in assay [1] (setting [6]) it was 45.4 µM; in assay [2] (Homo sapiens, MDA-MB-231, 48 h), 56.6 ± 3.1 µM. Further, the half-maximal effective concentration (EC50) in assay [3] (Homo sapiens, HUVEC) is 35.5 ± 4.1 µM; in assay [4] (setting [7]), 356 ± 15.9 µM.
`CC(C)[C@@H](C)/C=C/[C@@H](C)[C@H]1CC[C@@]2(O)C3=C(CC[C@]12C)[C@@]1(C)CC[C@H](O)C[C@@]12O[C@H]2C3=O` [Compound 14, (3β, 5α, 6α, 14α, 22E)-3, 14-dihydroxy-5,6-epoxy-ergosta-8, 22-dien-7-one]: the IC50 in assay [1] (setting [5]) was determined as 201 ± 6.4 µM; in assay [2] (Homo sapiens, MDA-MB-231, 48 h), 189 ± 8.1 µM. In addition, the EC50 in assay [3] (Homo sapiens, HUVEC) was 321 ± 18.9 µM; in assay [4] (setting [7]) it was over 500 µM.
For `CC(C)[C@@H](C)/C=C/[C@@H](C)[C@H]1CC[C@H]2C3=CC=C4C[C@@H](O)CC[C@]4(C)[C@H]3CC[C@]12C` [Compound 12, (3β, 22E)-ergosta-5,7, 22-trien-3-ol] the same measures were 75.6 ± 4.7 µM, 69.7 ± 5.8 µM, 72.4 ± 5.6 µM and 261 ± 12 µM.
With “(3β, 5α, 6β, 9α, 14α, 22E)-ergosta-7, 22-diene-3, 5, 6, 9, 14-pentol [Compound 8]”, in assay [1] (setting [9]), the “Experimental pIC50” value is recorded as 3.543. The “decline of activity in comparison with compound 2” value in assay [1] (HepG2 IC50) was “approximately 4.6 folds”. For the same compound, the values for the IC50 in assay [1] (setting [8]) and in assay [2] (48 h) were 286 ± 18.9 µM and 216 ± 14.3 µM, respectively. Moreover, the EC50 in assay [3] (read-out: EC50 HUVEC) was 357 ± 19.5 µM; in assay [4] (mean ± SD) it was over 500 µM.

Source of the values: PMC5670154, “Anti-tumor and Anti-angiogenic Ergosterols from Ganoderma lucidum” (Frontiers in Chemistry, 2017).
